Here are results for seven molecules from ChEMBL document CHEMBL1151939, “Potential scorpionate antibiotics: targeted hydrolysis of lipid II containing model membranes by vancomycin-TACzyme conjugates and modulation of their antibacterial activity by Zn-ions” (2009).

Assay type in all cases: functional
Experiment [1] deals with Enterococcus. As to the kind of experiment: Antimicrobial activity against vancomycin-susceptible Enterococcus 15A797 by broth microdilution method.
In experiment [2] the test system is Enterococcus. The experiment can be described thus: Antimicrobial activity against vancomycin-resistant Enterococcus 15A799 by broth microdilution method.
The subject of experiment [3] is Enterococcus. The experiment can be described thus: Antimicrobial activity against vancomycin-susceptible Enterococcus 15A797 by broth microdilution method in presence of ZnSo4 in medium.
For experiment [4], the system named is Enterococcus. As to the kind of experiment: Antimicrobial activity against vancomycin-resistant Enterococcus 15A799 by broth microdilution method in presence of ZnSo4 in medium.

Structures are written as SMILES. Values after ≈ are worked out from the molar mass of the structure shown. Active and inactive are the calls of the source. The calls are words filed in the database; no cut-off is given here.

With `C#CCOc1cc(OCC#C)cc(C(=O)NCCOc2cc(OCCNC(=O)c3cc(OCC#C)cc(OCC#C)c3)cc(C(=O)NCCCOCCOCCOCCCNC(=O)[C@H]3NC(=O)[C@H]4NC(=O)[C@H](NC(=O)[C@@H]5NC(=O)[C@H](CC(N)=O)NC(=O)[C@H](NC(=O)[C@@H](CC(C)C)NC)[C@H](O)c6ccc(c(Cl)c6)Oc6cc5cc(c6O[C@@H]5O[C@H](CO)[C@@H](O)[C@H](O)[C@H]5O[C@H]5C[C@](C)(N)[C@H](O)[C@H](C)O5)Oc5ccc(cc5Cl)[C@H]4O)c4ccc(O)c(c4)-c4c(O)cc(O)cc43)c2)c1`, the minimal inhibitory concentration (MIC) in experiment [1] was 1.6 µM (≈ 3.68 µg/mL); in experiment [2], 3.2 µM (≈ 7.35 µg/mL).
As for `COC(=O)c1cc(OCCNC(=O)c2cc(OCc3cn(CCCNC(=O)CC[C@H](NC(=O)c4cc5cc(c4)CN(C(=O)[C@H](Cc4c[nH]cn4)NC(C)=O)CCCN(C(=O)[C@H](Cc4c[nH]cn4)NC(C)=O)CCCN(C(=O)[C@H](Cc4c[nH]cn4)NC(C)=O)C5)C(N)=O)nn3)cc(OCc3cn(CCCNC(=O)CC[C@H](NC(=O)c4cc5cc(c4)CN(C(=O)[C@H](Cc4c[nH]cn4)NC(C)=O)CCCN(C(=O)[C@H](Cc4c[nH]cn4)NC(C)=O)CCCN(C(=O)[C@H](Cc4c[nH]cn4)NC(C)=O)C5)C(N)=O)nn3)c2)cc(OCCNC(=O)c2cc(OCc3cn(CCCNC(=O)CC[C@@H](NC(=O)c4cc5cc(c4)CN(C(=O)[C@H](Cc4c[nH]cn4)NC(C)=O)CCCN(C(=O)[C@@H](Cc4c[nH]cn4)NC(C)=O)CCCN(C(=O)[C@H](Cc4c[nH]cn4)NC(C)=O)C5)C(N)=O)nn3)cc(OCc3cn(CCCNC(=O)CC[C@@H](NC(=O)c4cc5cc(c4)CN(C(=O)[C@H](Cc4c[nH]cn4)NC(C)=O)CCCN(C(=O)[C@@H](Cc4c[nH]cn4)NC(C)=O)CCCN(C(=O)[C@H](Cc4c[nH]cn4)NC(C)=O)C5)C(N)=O)nn3)c2)c1`, the MIC entry in experiment [3] and in experiment [4] was “inactive” each time.
For the molecule `CN[C@H](CC(C)C)C(=O)N[C@H]1C(=O)N[C@@H](CC(N)=O)C(=O)N[C@H]2C(=O)N[C@H]3C(=O)N[C@H](C(=O)N[C@H](C(=O)O)c4cc(O)cc(O)c4-c4cc3ccc4O)[C@H](O)c3ccc(c(Cl)c3)Oc3cc2cc(c3O[C@@H]2O[C@H](CO)[C@@H](O)[C@H](O)[C@H]2O[C@H]2C[C@](C)(N)[C@H](O)[C@H](C)O2)Oc2ccc(cc2Cl)[C@H]1O` [VANCOMYCIN], the results for the MIC in experiment [1] and in experiment [2] were 0.3 µM (≈ 0.435 µg/mL) and 86 µM (≈ 125 µg/mL), respectively.
Turning to `CN[C@H](CC(C)C)C(=O)N[C@H]1C(=O)N[C@@H](CC(N)=O)C(=O)N[C@H]2C(=O)N[C@H]3C(=O)N[C@H](C(=O)N[C@H](C(=O)NCCCOCCOCCOCCCNC(=O)CCc4cn(CCCNC(=O)CC[C@H](NC(=O)c5cc6cc(c5)CN(C(=O)[C@@H](Cc5c[nH]cn5)NC(C)=O)CCCN(C(=O)[C@H](Cc5c[nH]cn5)NC(C)=O)CCCN(C(=O)[C@H](Cc5c[nH]cn5)NC(C)=O)C6)C(N)=O)nn4)c4cc(O)cc(O)c4-c4cc3ccc4O)[C@H](O)c3ccc(c(Cl)c3)Oc3cc2cc(c3O[C@@H]2O[C@H](CO)[C@@H](O)[C@H](O)[C@H]2O[C@H]2C[C@](C)(N)[C@H](O)[C@H](C)O2)Oc2ccc(cc2Cl)[C@H]1O`, the MIC is 5.8 µM (≈ 16 µg/mL) in experiment [1], 2.9 µM in experiment [3] and 92.8 µM in experiment [4]. In addition, the MIC result in experiment [2] is “inactive”.
Take `C#CCCC(=O)NCCCOCCOCCOCCCNC(=O)[C@H]1NC(=O)[C@H]2NC(=O)[C@H](NC(=O)[C@@H]3NC(=O)[C@H](CC(N)=O)NC(=O)[C@H](NC(=O)[C@@H](CC(C)C)NC)[C@H](O)c4ccc(c(Cl)c4)Oc4cc3cc(c4O[C@@H]3O[C@H](CO)[C@@H](O)[C@H](O)[C@H]3O[C@H]3C[C@](C)(N)[C@H](O)[C@H](C)O3)Oc3ccc(cc3Cl)[C@H]2O)c2ccc(O)c(c2)-c2c(O)cc(O)cc21`: in experiment [1], the minimal inhibitory concentration (MIC) turned out to be 1 µM (≈ 1.73 µg/mL). In experiment [2], the MIC result was “inactive”.
As to `CN[C@H](CC(C)C)C(=O)N[C@H]1C(=O)N[C@@H](CC(N)=O)C(=O)N[C@H]2C(=O)N[C@H]3C(=O)N[C@H](C(=O)N[C@H](C(=O)NCCCOCCOCCOCCNC(=O)c4cc(OCCNC(=O)c5cc(OCc6cn(CCCNC(=O)CC[C@H](NC(=O)c7cc8cc(c7)CN(C(=O)[C@@H](Cc7c[nH]cn7)NC(C)=O)CCCN(C(=O)[C@H](Cc7c[nH]cn7)NC(C)=O)CCCN(C(=O)[C@H](Cc7c[nH]cn7)NC(C)=O)C8)C(N)=O)nn6)cc(OCc6cn(CCCNC(=O)CC[C@H](NC(=O)c7cc8cc(c7)CN(C(=O)[C@@H](Cc7c[nH]cn7)NC(C)=O)CCCN(C(=O)[C@H](Cc7c[nH]cn7)NC(C)=O)CCCN(C(=O)[C@H](Cc7c[nH]cn7)NC(C)=O)C8)C(N)=O)nn6)c5)cc(OCCNC(=O)c5cc(OCc6cn(CCCNC(=O)CC[C@H](NC(=O)c7cc8cc(c7)CN(C(=O)[C@@H](Cc7c[nH]cn7)NC(C)=O)CCCN(C(=O)[C@H](Cc7c[nH]cn7)NC(C)=O)CCCN(C(=O)[C@H](Cc7c[nH]cn7)NC(C)=O)C8)C(N)=O)nn6)cc(OCc6cn(CCCNC(=O)CC[C@H](NC(=O)c7cc8cc(c7)CN(C(=O)[C@@H](Cc7c[nH]cn7)NC(C)=O)CCCN(C(=O)[C@H](Cc7c[nH]cn7)NC(C)=O)CCCN(C(=O)[C@H](Cc7c[nH]cn7)NC(C)=O)C8)C(N)=O)nn6)c5)c4)c4cc(O)cc(O)c4-c4cc3ccc4O)[C@H](O)c3ccc(c(Cl)c3)Oc3cc2cc(c3O[C@@H]2O[C@H](CO)[C@@H](O)[C@H](O)[C@H]2O[C@H]2C[C@](C)(N)[C@H](O)[C@H](C)O2)Oc2ccc(cc2Cl)[C@H]1O`, the minimum inhibitory concentration (MIC) in experiment [1] was found to be 40 µM (≈ 255 µg/mL); in experiment [3], 5 µM. Further, the MIC result in experiment [2] and in experiment [4] was “inactive” throughout.
Take `CC(=O)N[C@@H](Cc1c[nH]cn1)C(=O)N1CCCN(C(=O)[C@H](Cc2c[nH]cn2)NC(C)=O)Cc2cc(cc(C(=O)N[C@@H](CCC(=O)NCCCN=[N+]=[N-])C(N)=O)c2)CN(C(=O)[C@@H](Cc2c[nH]cn2)NC(C)=O)CCC1`: the MIC entry in experiment [3] and in experiment [4] was “inactive” in each case.
